Legend:
Test in all cases: Bliss excess, mean over the matrix (fraction); higher = more synergy
[1] = system: NCI-H2452 (Mesothelioma)
In short: (§1)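 After 24 hours at 37°C and 5% CO2 in 1536-well plates, cells in DMEM/F12 or RPMI plus 10% FBS received two-drug dose matrices for 72 hours. Viability came from CellTiter-Glo 2.0 luminescence and was scaled as inhibition, anchored at 0 by vehicle wells and at 1 by blank wells. Combination Emax is taken as the second-highest inhibition in the matrix, and Bliss excess as the observed combination effect less EA + EB − EA·EB, with EA and EB the single-agent effects.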

[2] = system: NCI-H2170 (Squamous Cell Lung Carcinoma)
In short: as §1

[3] = system: IGROV-1 (Ovarian Carcinoma)
In short: as §1

[4] = system: CAL-85-1 (Breast Carcinoma)
In short: as §1

[5] = system: GCIY (Gastric Carcinoma)
In short: as §1

[6] = system: HT-3 (Cervical Carcinoma)
In short: as §1

[7] = system: BT-474 (Breast Carcinoma)
In short: as §1

[8] = system: SCC90 (Head and Neck Carcinoma)
In short: as §1

[9] = system: TK (B-Cell Non-Hodgkin's Lymphoma)
In short: as §1

[10] = system: RPMI-8402 (T-Lymphoblastic Leukemia)
In short: as §1

[11] = system: HT-1197 (Bladder Carcinoma)
In short: as §1

[12] = system: SK-N-DZ (Neuroblastoma)
In short: as §1

[13] = system: L-363 (Plasma Cell Myeloma)
In short: as §1

[14] = system: MRK-nu-1 (Breast Carcinoma)
In short: as §1

[15] = system: SK-MEL-24 (Melanoma)
In short: as §1

[16] = system: KNS-62 (Squamous Cell Lung Carcinoma)
In short: as §1

[17] = system: NCI-H1048 (Small Cell Lung Carcinoma)
In short: as §1

[18] = system: NTERA-2-cl-D1 (Other Solid Carcinomas)
In short: as §1

[19] = system: SUP-HD1 (Hodgkin's Lymphoma)
In short: as §1

[20] = system: Daudi (Burkitt's Lymphoma)
In short: as §1

SMILES	Bliss excess [1]	Bliss excess [2]	Bliss excess [3]	Bliss excess [4]	Bliss excess [5]	Bliss excess [6]	Bliss excess [7]	Bliss excess [8]	Bliss excess [9]	Bliss excess [10]	Bliss excess [11]	Bliss excess [12]	Bliss excess [13]	Bliss excess [14]	Bliss excess [15]	Bliss excess [16]	Bliss excess [17]	Bliss excess [18]	Bliss excess [19]	Bliss excess [20]
COc1cc2ncnc(Nc3ccc(F)c(Cl)c3)c2cc1OCCCN1CCOCC1 [Gefitinib] + CC(C)n1c(=O)n(C)c2cnc3cc(F)c(-c4ccc(OCCCN5CCCCC5)nc4)cc3c21 [AZD1390] (first compound max 10 µM, 7x7, partner max 0.3 µM)	-0.108	-0.0867	-0.0824	-0.0236	0.0145	-0.0456	-0.0866	-0.0582	-0.0495	-0.0801	-0.0549	-0.0375	-0.0135	0.0492	-0.0831	-0.0783	-0.0556	-0.0643	-0.0683	-0.0688
COc1cc2c(cc1OCCCCCOc1cc3c(cc1OC)C(=O)N1C=C(C)C[C@H]1C=N3)N=C[C@@H]1CC(C)=CN1C2=O [SG3199] + O=C(c1cc(Cc2n[nH]c(=O)c3ccccc23)ccc1F)N1CCN(C(=O)C2CC2)CC1 [Olaparib] (first compound max 0.001 µM, 7x7, partner max 10 µM)	-0.117	-0.009	-0.0101	-0.0407	-0.0152	-0.0306	-0.0487	-0.0461	-0.0114	-0.0259	-0.028	-0.0199	-0.0123	-0.0642	-0.0576	-0.0464	-0.0432	-0.0586	0.1	-0.0273
CN(CCO)CC[C@H](CSc1ccccc1)Nc1ccc(S(=O)(=O)NC(=O)c2ccc(N3CCC([C@@H](O)c4ccccc4-c4ccc(Cl)cc4)CC3)cc2)cc1S(=O)(=O)C(F)(F)F [AZD4320] + Nc1ccn([C@@H]2O[C@H](CO)[C@@H](O)C2(F)F)c(=O)n1 [Gemcitabine] (first compound max 1 µM, 7x7, partner max 0.3 µM)	-0.0035			-0.0055	-0.0151					-0.0457			0.0563	0.0117	-0.0082	-0.0024		-0.0239		
CN(CCO)CC[C@H](CSc1ccccc1)Nc1ccc(S(=O)(=O)NC(=O)c2ccc(N3CCC([C@@H](O)c4ccccc4-c4ccc(Cl)cc4)CC3)cc2)cc1S(=O)(=O)C(F)(F)F [AZD4320] + C[C@@H](Nc1cc(F)cc(F)c1)c1cc(C(=O)N(C)C)cc2c(=O)cc(N3CCOCC3)oc12 [AZD8186] (first compound max 1 µM, 7x7, partner max 3 µM)	-0.0369	0.0284	0.042	0.0145	0.0022	0.0383	0.0516	0.0276	0.0312	0.0715	0.0598	-0.0302	0.0753	-0.0216	-0.0354	0.0068	0.0388	0.0543	0.0322	0.0555
N#Cc1cnc(Nc2cc(NC[C@H]3CNCCO3)c(C(F)(F)F)cn2)cn1 [SRA737] + Nc1ccn([C@@H]2O[C@H](CO)[C@@H](O)C2(F)F)c(=O)n1 [Gemcitabine] (first compound max 10 µM, 7x7, partner max 0.3 µM)	0.0892			0.0442	-0.0085					0.0312			0.123	0.0214	0.0307	0.0488		0.0301		
N#Cc1cnc(Nc2cc(NC[C@H]3CNCCO3)c(C(F)(F)F)cn2)cn1 [SRA737] + O=c1[nH]cc(F)c(=O)[nH]1 [5-Fluorouracil] (first compound max 10 µM, 7x7, partner max 20 µM)	0.0571			0.0703	-0.0044					-0.0445			0.0691	0.0291	-0.0047	0.0235		-0.0757		
N#Cc1cnc(Nc2cc(NC[C@H]3CNCCO3)c(C(F)(F)F)cn2)cn1 [SRA737] + C=CCn1c(=O)c2cnc(Nc3ccc(N4CCN(C)CC4)cc3)nc2n1-c1cccc(C(C)(C)O)n1 [AZD1775] (first compound max 10 µM, partner max 1 µM)	-0.0018			-0.0283	0.033					0.0473			0.121	0.0988	-0.0375	0.0171		0.0209		
